The results in this text go back to patent US10428044B2, “3-amino-1,5,6,7-tetrahydro-4H-indol-4-ones” (Bayer Pharma Aktiengesellschaft, priority 2014, dated 2019).

Where only a bound is given, the exact number is not on record here.

This assay deals with (recombinant) catalytic domain of human Bub1 (amino acids 704-1085) (Homo sapiens (Human), UniProt O43683). The assay is described as follows: Bub1 kinase assay (TR-FRET). In kind it is biochemical. Conditions: ATP 10 μM final, peptide substrate 1 μM final, 60 min at 22° C., read-out: Biological Assay: Bub1 kinase assay median IC50. Here is the method: Examples were tested in selected biological assays one or more times. When tested more than once, data are reported as either average values or as median values, wherein • the average value, also referred to as the arithmetic mean value, represents the sum of the values obtained divided by the number of times tested, and • the median value represents the middle number of the group of values when ranked in ascending or descending order. If the number of values in the data set is odd, the median is the middle value. If the number of values in the data set is even, the median is the arithmetic mean of the two middle values.
(recombinant) catalytic domain of human Bub1 (amino acids 704-1085), sequence (O43683 704-1085): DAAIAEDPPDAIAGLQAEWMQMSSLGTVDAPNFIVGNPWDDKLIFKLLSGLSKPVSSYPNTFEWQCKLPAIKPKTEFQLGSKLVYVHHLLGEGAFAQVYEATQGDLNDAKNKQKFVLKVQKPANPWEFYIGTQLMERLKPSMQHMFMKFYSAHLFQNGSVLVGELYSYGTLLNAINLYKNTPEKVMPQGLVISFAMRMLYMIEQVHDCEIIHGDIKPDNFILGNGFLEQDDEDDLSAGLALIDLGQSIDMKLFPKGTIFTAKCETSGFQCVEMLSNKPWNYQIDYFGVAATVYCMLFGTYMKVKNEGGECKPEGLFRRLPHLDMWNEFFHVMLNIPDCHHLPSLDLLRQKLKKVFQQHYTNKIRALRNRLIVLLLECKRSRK
To this end, 100-fold concentrated compound solutions (in DMSO) were previously prepared by serial dilution (1:3.4) of 2 mM stocks in a clear low volume 384-well source microtiter plate (Greiner Bio-One, Frickenhausen, Germany), from which 50 nl of compounds were transferred into a black low volume test microtiter plate from the same supplier. […] The resulting mixture (5 μL final volume) was incubated at 22° C. during 60 min., and the reaction was stopped by the addition of 5 μL of an aqueous EDTA-solution (50 mM EDTA, in 100 mM HEPES pH 7.5 and 0.2% (w/v) bovine serum albumin) which also contained the TR-FRET detection reagents (0.2 μM streptavidin-XL665 [Cisbio Bioassays, Codolet, France] and 1 nM anti-phosho-Serine antibody [Merck Millipore, cat. #35-002] and 0.4 nM LANCE EU-W1024 labeled anti-mouse IgG antibody [Perkin-Elmer, product no. AD0077, alternatively a Terbium-cryptate-labeled anti-mouse IgG antibody from Cisbio Bioassays can be used]). The stopped reaction mixture was further incubated 1 h at 22° C. in order to allow the formation of complexes between peptides and detection reagents. Subsequently, the amount of product was evaluated by measurement of the resonance energy transfer from the Eu-chelate-antibody complex recognizing the Phosphoserine residue to the streptavidin-XL665 bound to the biotin moiety of the peptide. […] The data were normalised using two sets of control wells for high- (=enzyme reaction without inhibitor=0%=Minimum inhibition) and low- (=all assay components without enzyme=100%=Maximum inhibition) Bub1 activity. IC50 values were calculated by fitting the normalized inhibition data to a 4-parameter logistic equation (Minimum, Maximum, IC50, Hill; Y=Max+(Min−Max)/(1+(X/IC50)Hill)).
Consider `Cc1cccc(Nc2c(-c3ccncc3)[nH]c3c2C(=O)CC(C)(C)C3)c1CO` [Example 483, 3-{[2-(hydroxymethyl)-3-methylphenyl]amino}-6,6-dimethyl-2-(pyridin-4-yl)-1,5,6,7-tetrahydro-4H-indol-4-one], for which the IC50 (as a rule, the concentration that inhibits the measured activity by half) was 9.48 nM.
Consider `CC(=O)Nc1cc(-c2[nH]c3c(c2Nc2ccccc2)C(=O)CC(CCl)C3)ccn1` (centres unmarked) [Example 444, N-{4-[6-(chloromethyl)-4-oxo-3-(phenylamino)-4,5,6,7-tetrahydro-1H-indol-2-yl]pyridin-2-yl}acetamide], for which the IC50 amounted to 4.61 nM.
As to `O=C1CC2(CC2)Cc2[nH]c(-c3ccnc(F)c3)c(Nc3ccccc3)c21` [Example 207, 2′-(2-fluoropyridin-4-yl)-3′-(phenylamino)-1′,7′-dihydrospiro[cyclopropane-1,6′-indol]-4′(5′H)-one], the IC50 was 7.32 nM.
For the compound `CC1(C)CC(=O)c2c([nH]c(-c3ccnc(NC(=O)c4cnn(Cc5ccccc5)c4)c3)c2Nc2ccccc2)C1` [Example 478, 1-benzyl-N-{4-[6,6-dimethyl-4-oxo-3-(phenylamino)-4,5,6,7-tetrahydro-1H-indol-2-yl]pyridin-2-yl}-1H-pyrazole-4-carboxamide], the 50% inhibitory concentration (IC50) worked out at 4.23 nM.
`CC1(C)CC(=O)c2c([nH]c(-c3ccncc3)c2Nc2cccc(OCCO)c2)C1` [Example 106, 3-{[3-(2-hydroxyethoxy)phenyl]amino}-6,6-dimethyl-2-(pyridin-4-yl)-1,5,6,7-tetrahydro-4H-indol-4-one]: the IC50 worked out at 5350 nM.
With `CN[C@H](C)C(=O)Nc1cc(-c2[nH]c3c(c2Nc2ccccc2)C(=O)CCC3)ccn1` [Example 302, N^2-methyl-N-{4-[4-oxo-3-(phenylamino)-4,5,6,7-tetrahydro-1H-indol-2-yl]pyridin-2-yl}-D-alaninamide], the IC50 was 480 nM.
For the compound `Cc1cc(CC(=O)Nc2cc(-c3[nH]c4c(c3Nc3ccccc3)C(=O)CCC4)ccn2)on1` [Example 289, 2-(3-methyl-1,2-oxazol-5-yl)-N-{4-[4-oxo-3-(phenylamino)-4,5,6,7-tetrahydro-1H-indol-2-yl]pyridin-2-yl}acetamide], the IC50 was found to be 15.9 nM.
As for `CCCOc1cnccc1-c1[nH]c2c(c1Nc1ccccc1)C(=O)CCC2` [Example 456, 3-(phenylamino)-2-(3-propoxypyridin-4-yl)-1,5,6,7-tetrahydro-4H-indol-4-one], the IC50 is 73.3 nM.
With `CC1(C)CC(=O)c2c([nH]c(-c3ccncc3)c2Nc2cccc(C(C)(C)C)c2)C1` [Example 114, 3-[(3-tert-butylphenyl)amino]-6,6-dimethyl-2-(pyridin-4-yl)-1,5,6,7-tetrahydro-4H-indol-4-one], the IC50 was determined as 8640 nM.
Turning to `CCC(=O)Nc1cccc(Nc2c(-c3ccncc3)[nH]c3c2C(=O)CC(C)(C)C3)c1` [Example 98, N-(3-{[6,6-dimethyl-4-oxo-2-(pyridin-4-yl)-4,5,6,7-tetrahydro-1H-indol-3-yl]amino}phenyl)propanamide], the IC50 is 1540 nM.
`CC1(C)CC(=O)c2c([nH]c(-c3ccncc3)c2Nc2ccccc2C#N)C1` [Example 146, 2-{[6,6-dimethyl-4-oxo-2-(pyridin-4-yl)-4,5,6,7-tetrahydro-1H-indol-3-yl]amino}benzonitrile]: the IC50 was determined as 48.2 nM.
The value for `COC(C)c1cccc(Nc2c(-c3ccncc3)[nH]c3c2C(=O)CC(C)(C)C3)c1` (centres unmarked) [Example 156, 3-{[3-(1-methoxyethyl)phenyl]amino}-6,6-dimethyl-2-(pyridin-4-yl)-1,5,6,7-tetrahydro-4H-indol-4-one] was 743 nM; that for `CC1(C)C/C(=N\O)c2c([nH]c(-c3ccncc3)c2Nc2ccccc2)C1` [Example 194, 4-(hydroxyimino)-6,6-dimethyl-N-phenyl-2-(pyridin-4-yl)-4,5,6,7-tetrahydro-1H-indol-3-amine] was 42 nM.
For `O=C1CC(C(F)(F)F)Cc2[nH]c(-c3ccncc3)c(Nc3cccc(F)c3)c21` (centres unmarked) [Example 43, 3-[(3-fluorophenyl)amino]-2-(pyridin-4-yl)-6-(trifluoromethyl)-1,5,6,7-tetrahydro-4H-indol-4-one], the IC50 amounted to 9.6 nM.
Consider `O=C1CCCc2[nH]c(-c3ccnc(NCc4cncs4)c3)c(Nc3ccccc3)c21` [Example 500, 3-(phenylamino)-2-{2-[(1,3-thiazol-5-ylmethyl)amino]pyridin-4-yl}-1,5,6,7-tetrahydro-4H-indol-4-one], for which the IC50 was 356 nM.
`CCCOc1cccc(Nc2c(-c3ccncc3)[nH]c3c2C(=O)CC(C)(C)C3)c1` [Example 108, 6,6-dimethyl-3-[(3-propoxyphenyl)amino]-2-(pyridin-4-yl)-1,5,6,7-tetrahydro-4H-indol-4-one]: the half-inhibitory concentration (IC50) was determined as 104 nM.
With `O=C(Nc1cc(-c2[nH]c3c(c2Nc2ccccc2)C(=O)CCC3)ccn1)c1ncc[nH]1` [Example 274, N-{4-[4-oxo-3-(phenylamino)-4,5,6,7-tetrahydro-1H-indol-2-yl]pyridin-2-yl}-1H-imidazole-2-carboxamide], the IC50 was determined as 48.2 nM.
Regarding `CC1(C)CC(=O)c2c([nH]c(-c3ccnc(C(F)F)c3)c2Nc2ccccc2)C1` [Example 400, 2-[2-(difluoromethyl)pyridin-4-yl]-6,6-dimethyl-3-(phenylamino)-1,5,6,7-tetrahydro-4H-indol-4-one], the IC50 worked out at 157 nM.
As to `O=C(COc1ccccc1F)Nc1cc(-c2[nH]c3c(c2Nc2ccccc2)C(=O)CCC3)ccn1` [Example 339, 2-(2-fluorophenoxy)-N-{4-[4-oxo-3-(phenylamino)-4,5,6,7-tetrahydro-1H-indol-2-yl]pyridin-2-yl}acetamide], the IC50 worked out at 39.4 nM.
As to `COCCOc1cnccc1-c1[nH]c2c(c1Nc1ccccc1)C(=O)CC(C)(C)C2` [Example 410, 2-[3-(2-methoxyethoxy)pyridin-4-yl]-6,6-dimethyl-3-(phenylamino)-1,5,6,7-tetrahydro-4H-indol-4-one], the IC50 amounted to 3.55 nM.
In the case of `CC1(C)CC(=O)c2c([nH]c(-c3ccnc4[nH]ccc34)c2Nc2ccccc2)C1` [Example 27, 6,6-dimethyl-3-(phenylamino)-2-(1H-pyrrolo[2,3-b]pyridin-4-yl)-1,5,6,7-tetrahydro-4H-indol-4-one], the IC50 stood at 43.3 nM.
The value for `Cc1nnc(COCC(=O)Nc2cc(-c3[nH]c4c(c3Nc3ccccc3)C(=O)CCC4)ccn2)s1` [Example 356, 2-[(5-methyl-1,3,4-thiadiazol-2-yl)methoxy]-N-{4-[4-oxo-3-(phenylamino)-4,5,6,7-tetrahydro-1H-indol-2-yl]pyridin-2-yl}acetamide] was 7.91 nM.
The value for `COc1cccc(Nc2c(-c3ccncc3)[nH]c3c2C(=O)CC(C)(C)C3)c1OC` [Example 56, 3-[(2,3-dimethoxyphenyl)amino]-6,6-dimethyl-2-(pyridin-4-yl)-1,5,6,7-tetrahydro-4H-indol-4-one] was 654 nM; that for `CC1(C)CC(=O)c2c([nH]c(-c3ccnc(N4CCOCC4)c3)c2Nc2ccccc2)C1` [Example 127, 6,6-dimethyl-2-[2-(morpholin-4-yl)pyridin-4-yl]-3-(phenylamino)-1,5,6,7-tetrahydro-4H-indol-4-one] was 7750 nM; that for `CC1(C)CC(=O)c2c([nH]c(-c3ccncc3)c2Nc2ccccc2CO)C1` [Example 426, 3-{[2-(hydroxymethyl)phenyl]amino}-6,6-dimethyl-2-(pyridin-4-yl)-1,5,6,7-tetrahydro-4H-indol-4-one] was 2.58 nM.
In the case of `CC1(C)CC(=O)c2c([nH]c(-c3ccnc(NC(=O)c4nccs4)c3)c2Nc2ccccc2)C1` [Example 505, N-{4-[6,6-dimethyl-4-oxo-3-(phenylamino)-4,5,6,7-tetrahydro-1H-indol-2-yl]pyridin-2-yl}-1,3-thiazole-2-carboxamide], the IC50 is 11.1 nM.
As for `CC(C)(C)OC(=O)N1CC(CNc2cc(-c3[nH]c4c(c3Nc3ccccc3)C(=O)CCC4)ccn2)C1` [Example 373, tert-butyl 3-[({4-[4-oxo-3-(phenylamino)-4,5,6,7-tetrahydro-1H-indol-2-yl]pyridin-2-yl}amino)methyl]azetidine-1-carboxylate], the IC50 came out at 694 nM.
On to `O=C1CCCc2[nH]c(-c3ccnc(NC(=O)C4CNC4)c3)c(Nc3ccccc3)c21` [Example 296, N-{4-[4-oxo-3-(phenylamino)-4,5,6,7-tetrahydro-1H-indol-2-yl]pyridin-2-yl}azetidine-3-carboxamide], for which the IC50 turned out to be 3450 nM.
As to `CC1(C)CC(=O)c2c([nH]c(-c3ccncc3)c2Nc2ccc(-c3ccccc3)cc2)C1` [Example 414, 3-(biphenyl-4-ylamino)-6,6-dimethyl-2-(pyridin-4-yl)-1,5,6,7-tetrahydro-4H-indol-4-one], the IC50 was above 20000 nM.
